Results published in PMC2409929 (British Journal of Cancer, 2004).

Legend:
[1] = 140 mg m^−2: 10 mg m^−2 irinotecan as 14-day prolonged infusions, N=6, mean±s.d.; ref 16 (Herben et al, 1999); cited from earlier work
[2] = Population pharmacokinetics, plasma total irinotecan and SN-38 (HPLC, NONMEM), first course; type: in vivo; conditions: human, iv
Procedure: A pharmacokinetic evaluation was performed using a population approach; 88 patients from arms A, B and C were evaluated during the first course of treatment. The sampling strategy consisted of three different sampling schedules (with three sampling times in each): schedule 1: 30 min before the end of the infusion, 5 min and 3–4 h post-infusion; schedule 2: 30 min before the end of the infusion, 10 min and 5–7 h post-infusion; schedule 3: 5 min before the end of the infusion, 30 min and 20–24 h post-infusion. In a few cases, an additional sample was taken in schedules 1 and 2 after 24 h. All patients at one site were sampled according to the same schedule. The aim of the sampling strategy was to define the full kinetic profile over the whole population, by drawing a small number of samples at different times from a large number of patients.
Blood samples (5 ml) were collected in heparinised tubes and immediately immersed in ice-water. Plasma was obtained by centrifugation of the samples (5 min; 3000 r.p.m., 4°C) and stored at −20°C or lower until analysis. […] Pharmacokinetic parameters were determined by the Bayesian approach with the concentration–time data from each patient, and a population model previously defined.
Otherwise, they were analysed by nonparametric methods. […] All tests for significance were two-tailed.

[3] = test system: patients with metastatic colorectal cancer; test: Randomised phase II trial: tumour response (WHO criteria) and time-to-event efficacy; conditions: for Complete response, % / Duration of response and stabilisation, median (min–max) / Overall response (CR+PR), % / Partial response, % / Progressive disease, % / Response not evaluable, % / Stable disease, % / Survival, median (min–max) / Time to progression, median (min–max) / Time to treatment failure, median (min–max): intent-to-treat
Procedure: A total of 17 centres in Europe participated in this study: two in Denmark, one in Ireland, four in The Netherlands, five in Norway, two in Sweden and three in Russia. […] Randomisation was performed centrally by Aventis Pharma R&D, Antony Cedex, France. […] A total of 37 evaluable patients per arm had to be included.
Pretreatment evaluation included a complete medical history and complete physical examination. Before each course, blood chemistry and haematology profiles were checked. Haematology was checked weekly. […] An external response review committee (ERRC) was established during the study to perform assessments of tumour response. […] Adverse events that were not reported according to NCI-CTC were graded as mild, moderate, severe, or life threatening.
The primary efficacy variable was response rate; overall response was defined as complete plus partial response. The secondary efficacy variables were the duration of response and stabilisation, time to progression, time to treatment failure and the overall survival. The differences between the four treatment groups were explored with the χ^2 test. Subsequent statistical tests were performed only in the case of evidence of difference to provide the significance level of difference. The Fisher exact test was used to compare treatment groups on categorical variables. For continuous variables, if a normal distribution could be assumed, Student's t-tests were used. Otherwise, they were analysed by nonparametric methods. Exact confidence intervals were calculated using binominal distribution probability. Censored data were analysed using the Kaplan–Meier method; the log-rank test was used to compare the groups. Differences in pharmacokinetic parameters between the four treatment arms were evaluated using one-way analysis of variance (ANOVA) combined with least significant difference (LSD) method (P was set at 0.05) and the Student's t-test was used to calculate the P-value of significant differences. The Pearson correlation coefficient (r) was calculated between dose and pharmacokinetic parameters. Statistical analyses were performed with SPSS (version 10.0.7 for Windows, SPSS Inc.). All tests for significance were two-tailed.

[4] = arm A, 350 mg m^−2 90-min i.v. infusion, N=30, mean±s.d.
[5] = arm B, 125 mg m^−2 90-min i.v. infusion, N=28, mean±s.d.
[6] = arm C, 250 mg m^−2 90-min i.v. infusion, N=30, mean±s.d.
[7] = arm A (350 mg m^−2 90-min i.v. q3 weeks)
[8] = arm B (125 mg m^−2 90-min i.v. weekly × 4 q6 weeks)
[9] = arm C (250 mg m^−2 90-min i.v. q2 weeks)
[10] = arm D (10 mg m^−2 day^−1 14-day continuous infusion q3 weeks)

Compound: CCc1c2c(nc3ccc(OC(=O)N4CCC(N5CCCCC5)CC4)cc13)-c1cc3c(c(=O)n1C2)COC(=O)[C@]3(O)CC [irinotecan]
- Irinotecan AUC [1]: 12.8 ± 3.9 µM·h
- AUC [2, 4]: 47.8 ± 19 µM·h
- Cmax [2, 4]: 7.91 ± 1.1 µM
- AUC [2, 5]: 14.6 ± 6.9 µM·h
- Cmax [2, 5]: 2.62 ± 0.39 µM
- AUC [2, 6]: 32.7 ± 13.5 µM·h
- Cmax [2, 6]: 5.52 ± 0.9 µM
- Patients who discontinued treatment because of progressive disease [3, 7]: 81%
- Complete response, % [3, 7]: 0%
- Duration of response and stabilisation, median (min–max) [3, 7]: 5.9 (0.8–12.7) Months
- Overall response (CR+PR), % [3, 7]: 7%
- Partial response, % [3, 7]: 7%
- Progressive disease, % [3, 7]: 46%
- Response not evaluable, % [3, 7]: 2%
- Stable disease, % [3, 7]: 44%
- Survival, median (min–max) [3, 7]: 9.4 (1.0–15.3) Months
- Time to progression, median (min–max) [3, 7]: 2.7 (1.0–12.8) Months
- Time to treatment failure, median (min–max) [3, 7]: 2.7 (1.0–12.8) Months
- Patients who discontinued treatment because of progressive disease [3, 8]: 57%
- Complete response, % [3, 8]: 0%
- Duration of response and stabilisation, median (min–max) [3, 8]: 3.9 (1.0–13.0) Months
- Overall response (CR+PR), % [3, 8]: 5%
- Partial response, % [3, 8]: 5%
- Progressive disease, % [3, 8]: 19%
- Response not evaluable, % [3, 8]: 14%
- Stable disease, % [3, 8]: 62%
- Survival, median (min–max) [3, 8]: 7.1 (0.6–13.5) Months
- Time to treatment failure, median (min–max) [3, 8]: 2.3 (0.6–8.3) Months
- Patients who discontinued treatment because of progressive disease [3, 9]: 61%
- Complete response, % [3, 9]: 0%
- Duration of response and stabilisation, median (min–max) [3, 9]: 5.3 (1.3–8.9) Months
- Overall response (CR+PR), % [3, 9]: 11%
- Partial response, % [3, 9]: 11%
- Progressive disease, % [3, 9]: 33%
- Response not evaluable, % [3, 9]: 2%
- Stable disease, % [3, 9]: 54%
- Survival, median (min–max) [3, 9]: 8.6 (0.7–16.7) Months
- Time to progression, median (min–max) [3, 9]: 3.8 (0.0–8.9) Months
- Time to treatment failure, median (min–max) [3, 9]: 3.2 (0.4–7.1) Months
- Patients who discontinued treatment because of progressive disease [3, 10]: 55%
- Complete response, % [3, 10]: 2%
- Duration of response and stabilisation, median (min–max) [3, 10]: 3.4 (1.3–6.9) Months
- Overall response (CR+PR), % [3, 10]: 5%
- Partial response, % [3, 10]: 2%
- Progressive disease, % [3, 10]: 34%
- Response not evaluable, % [3, 10]: 18%
- Stable disease, % [3, 10]: 43%
- Survival, median (min–max) [3, 10]: 6.4 (1.1–15.1) Months
- Time to progression, median (min–max) [3, 10]: 2.8 (0.0–7.0) Months
- Time to treatment failure, median (min–max) [3, 10]: 1.7 (0.5–7.1) Months
- Median survival ([3]; range across the four arms A–D): 6.4–9.4 months
- Overall response rates ([3]; range across the four arms A–D): 5–11%
- Time to progression ([3]; range across the four arms A–D): 2.7–3.8 months
- Time to treatment failure ([3]; range across the four arms A–D): 1.7–3.2 months
